Consider 16 compounds from PubChem BioAssay AID623864 (Southern Research Specialized Biocontainment Screening …, 2012).

Active and inactive are the calls of the source. The rule behind the calls is not given here.

As usually defined, the CC50 is the concentration that lowers cell viability or growth by half. A word on the viability: it is a per cent measure of how many cells are alive, often set against a control.

One experiment relates to VeroE6 cell viability, cytotoxicity CC50. In words: viability of VeroE6 cells – cytotoxicity control for flavivirus guanylyltransferase probe project, dose response (AID 623864).
Conditions: not given
As to `O=C(O)CSc1cc(NS(=O)(=O)c2ccc(Cl)cc2)c2ccccc2c1O`, the 50% cytotoxic concentration (CC50) is 30.8 µM.

As to `O=S(=O)(Nc1cc(SCc2ccccc2)c(O)c2ccccc12)c1ccc(Cl)cc1`, the CC50 was 32.3 µM.

`Cc1cc(C)c(S(=O)(=O)Nc2cc(SCC(=O)O)c(O)c3ccccc23)c(C)c1`: the CC50 was 12.6 µM.

On to `O=C(O)CSc1cc(NS(=O)(=O)c2cccc3cccnc23)c2ccccc2c1O`, for which the CC50 was 19.2 µM.

`O=C(O)CSc1cc(NS(=O)(=O)c2cccc([N+](=O)[O-])c2)c2ccccc2c1O`: the CC50 is 30.9 µM.

As for `Cc1ccc(S(=O)(=O)Nc2cc(SCC(=O)O)c(O)c3ccccc23)cc1`, the cytotoxic concentration (CC50) is 27.6 µM.

For the compound `Cc1cc(F)ccc1S(=O)(=O)Nc1cc(SCC(=O)O)c(O)c2ccccc12`, the CC50 was 21.6 µM.

Turning to `O=[N+]([O-])c1cccc(S(=O)(=O)Nc2cc(Sc3nc4ccccc4s3)c(O)c3ccccc23)c1`, the CC50 was 7.37 µM.

Regarding `O=S(=O)(Nc1cc(Cl)c(O)c2ccccc12)c1ccc(F)cc1`, the CC50 is 29.4 µM.

For the compound `Cc1ccc(S(=O)(=O)Nc2cc(Sc3nc(C)cc(C)n3)c(O)c3ccccc23)cc1`, the CC50 is 12.8 µM.

As to `COc1ccc(OC)c(S(=O)(=O)Nc2cc(SCC(=O)O)c(O)c3ccccc23)c1`, the CC50 is 29.7 µM.

On to `O=C(O)CSc1cc(NS(=O)(=O)c2ccc(Br)cc2)c2ccccc2c1O`, for which the cytotoxic concentration (CC50) was 21.6 µM.

As for `O=C(O)CSc1cc(NS(=O)(=O)c2ccc(F)cc2)c2ccccc2c1O`, the cytotoxic concentration (CC50) is 20 µM.

Consider `O=[N+]([O-])c1cccc(S(=O)(=O)Nc2cc(SCc3ccccc3)c(O)c3ccccc23)c1`, for which the 50% cytotoxic concentration (CC50) is 14.4 µM.

`O=S(=O)(Nc1cc(Sc2ncn[nH]2)c(O)c2ccccc12)c1ccc(F)cc1`: the CC50 was 31.7 µM.

System in a further experiment: not listed separately
The description is as above. The following applies: VeroE6 cell viability, cytotoxicity CC50; at 50 µM (top of the series).
Turning to `Cn1c(=O)c2[nH]c(-c3ccc(Cl)cc3)c(O)c2n(C)c1=O`, the viability was 72.3% (inactive).
